Test results: PubChem BioAssay (NCI)
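Five compound concentrations were applied to cells in 96-well plates for 48 hours; endpoints were derived by simple linear interpolation of the resulting dose-response curve. The concentration for 50% growth inhibition is given as GI50. TGI is the concentration that stops growth completely.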

Legend:
Assay in all cases: DTP human tumour cell line panel, 48 h
[1] = tested on: SK-MEL-5 melanoma
[2] = tested on: SW-620 colon
[3] = tested on: SN12C renal
[4] = tested on: RXF 393 renal
[5] = tested on: MOLT-4 leukemia
[6] = tested on: HT29 colon
[7] = tested on: CAKI-1 renal
[8] = tested on: NCI/ADR-RES ovarian
[9] = tested on: T-47D breast

SMILES | GI50 [1] [µM] | TGI [1] [µM] | GI50 [2] [µM] | TGI [2] [µM] | GI50 [3] [µM] | TGI [3] [µM] | GI50 [4] [µM] | TGI [4] [µM] | GI50 [5] [µM] | TGI [5] [µM] | GI50 [6] [µM] | TGI [6] [µM] | GI50 [7] [µM] | TGI [7] [µM] | GI50 [8] [µM] | TGI [8] [µM] | GI50 [9] [µM] | TGI [9] [µM]
CC[O-].CC[O-].O=C1C=C([O-])C(=O)c2ccccc21.O=C1C=C([O-])C(=O)c2ccccc21.[Ti+4] | 3.07 | 55.9 | 90.5 | > 100 | > 100 | > 100 | > 100 | > 100 | > 100 | > 100 | 22.4 | > 100 | > 100 | > 100 |  |  |  | 
O=C(O)c1ccc(CSc2nc3ccccc3[nH]2)cc1 | > 100 | > 100 | > 100 | > 100 | > 100 | > 100 | > 100 | > 100 | > 100 | > 100 | > 100 | > 100 | > 100 | > 100 | > 100 | > 100 |  | 
CC1=C2CC[C@@]3(C)C(=CCC3O)C2(C)CCC1=O (stereo partly specified) |  | > 100 |  | > 100 |  | > 100 |  | > 100 |  | > 100 |  | > 100 |  | > 100 |  |  |  | 
CC(=O)Oc1ccc2c(=O)c(C(C)=O)coc2c1 |  | > 100 |  | > 100 |  |  |  | > 100 |  | > 100 |  | > 100 |  | > 100 |  |  |  | 
OC1CC(O)O[C@H](c2ccccc2)C1 (stereo partly specified) |  | > 100 |  | > 100 |  | > 100 |  | > 100 |  | > 100 |  | > 100 |  | > 100 |  |  |  | 
COC(=O)c1cc(O)ccc1O |  | > 100 |  | > 100 |  | > 100 |  | > 100 |  | > 100 |  | > 100 |  | > 100 |  |  |  | 
OC1(C(Sc2ccccc2)Sc2ccccc2)CCCCCC1 |  | 29.6 |  | > 100 |  | 38.5 |  |  |  | > 100 |  |  |  | 74.9 |  |  |  | 
NNC(=O)/C(NC(=O)c1ccccc1)=C(\N)c1cccc([N+](=O)[O-])c1 |  | > 100 |  | > 100 |  | > 100 |  | > 100 |  | > 100 |  | > 100 |  | > 100 |  |  |  | 
CCCCCCCCCCCCCCCC(=O)NS(=O)(=O)OC[C@H]1O[C@@H](n2cnc3c(N)ncnc32)[C@H](O)[C@@H]1O | 0.234 | 0.571 | 0.0412 | 10.1 | 0.262 | 1.45 | < 0.0161 | < 0.0284 | 0.962 | 8.92 | 0.0402 | 0.342 |  |  | 0.0917 | 3.55 | 0.275 | 1.34
COC(=O)C1c2cc3c(c(O)c2CCC1(C)O)C(=O)c1c(O)cc2c(c1C3=O)OC1OC2(C)C(O)C(N(C)C)C1O (stereo unspecified) |  | 1.73 |  | 1.08 |  | 3.84 |  | 1.55 |  | 0.357 |  | 1.29 |  |  |  | 3.54 |  | 1.61
CC1(C)CC[C@]23CC[C@]4(C)[C@H](CC[C@@H]5[C@@]6(C)CCCNC(C)(C)[C@@H]6CC[C@]54C)[C@H]2[C@H]1OC3 | 1.69 | 3.06 | 1.75 | 3.49 | 1.68 | 3.2 | 1.56 | 2.98 | 2.1 | 5.04 | 1.78 | 3.63 | 1.62 | 2.97 |  |  | 1.71 | 3.69
CCN(N=O)C1C2(CCCC2)NC(=O)C12CCCC2 (stereo unspecified) |  |  |  | > 100 |  | > 100 |  | > 100 |  | > 100 |  | > 100 |  |  |  |  |  | 
CC(=O)OCc1nnn2c1C(OC(C)=O)CC2 (stereo unspecified) |  | > 100 |  | > 100 |  | > 100 |  | > 100 |  | > 100 |  | > 100 |  | > 100 |  |  |  | 
CCOC(=O)CCc1c(C)c2c(OC)cc(OC)cc2oc1=O |  |  |  | > 100 |  | > 100 |  | 82.4 |  |  |  | > 100 |  | > 100 |  |  |  | 
Cc1[nH]c(=O)n2c(C)nnc2c1C(=O)O |  |  |  | > 100 |  | > 100 |  | > 100 |  | > 100 |  | > 100 |  | > 100 |  |  |  | 
CCOC(=O)C(C(=O)OCC)=C1C=C(c2ccccc2)c2ccccc21 |  | > 100 |  | > 100 |  | > 100 |  | > 100 |  | > 100 |  | > 100 |  |  |  |  |  | 
CC(=O)[O-].CC(=O)[O-].O=C([CH-]C(=O)c1ccccc1)c1ccccc1.[Nd+3].[OH3+] | 14.5 | 33.9 | 16.3 | > 100 | 23.5 | 92.3 |  |  | 10.6 | > 100 | 20.9 | 89.6 | 27.9 | 91.3 |  |  |  | 
C[C@@H](NC1CCCC[C@@H]1O)c1ccccc1 (stereo partly specified) |  | > 100 |  | > 100 |  | > 100 |  | > 100 |  | > 100 |  | > 100 |  | > 100 |  |  |  | 
Cc1ccc2ncnc(N(C)C3CCCCC3)c2c1 | > 100 | > 100 |  |  | 39.6 | > 100 | 3.84 | 17.9 | 14.4 | 63.6 |  |  | 13.9 | 39 | 19.1 | 53 | 76.9 | > 100
